Patent US12459951B2, “Compounds that interact with RAS superfamily proteins for treatment of cancers, inflammatory diseases, rasopathies, and fibrotic disease” (SHY Therapeutics, LLC, priority 2022, dated 2025)

How the values were obtained:
[1] = system: Smad2/Smad3 phosphorylation; assay: Phospho-Smad2/3 Inhibition Assay (western blot), Panc-1; type: cell-based, human; conditions: at 10 μM, Panc-1 pancreatic cancer cell line; starred symbols = activation
Outline: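 Panc-1 cells (KRas G12D), starved overnight in 0.5% FBS, treated 3 h at 37° C with compound at 10 μM final (0.3% DMSO) or serial dilutions for IC50, then stimulated with 10 ng/ml TGF-b1 for 1 h. Phospho-Smad2 (Ser465/467) and phospho-Smad3 (Ser423/425) detected by western blot.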

TNF-alpha = TNF-alpha Quantification Assay (ELISA), LPS-stimulated RAW 264.7; type: cell-based; conditions: Mus musculus, RAW264.7; at 10 μM; read-out: TNFα: % inh.
KRas G12D mutant = assay: Ras GTP Binding Domain Inhibition Assay (Ras Superfamily Assay); conditions: at 20 μM; for KRas G12D mutant + SOS: % inh.: with SOS; for KRas G12D mutant: % inh.: without SOS
Outline: (§1)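 Binding of 100 nM fluorescent GTP (Cy3 or Cy5, 45 min, room temperature) was read after washes from plate-captured His-tagged protein. Beforehand, compounds at 20 μM or in dilution series for IC50 sat 3 h on the protein in Tris buffer pH 7.4 or 7.0 with 1% DMSO, Sos GEF optionally added for the last hour.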

KRas wild type = assay: as above; conditions: at 20 μM; for KRas wild type + SOS: % inh.: with SOS; for KRas wild type: % inh.: without SOS
Outline: as §1

Rac-1 = molecular target: T1, Rac-1 (Homo sapiens, UniProt P63000); assay: as above; conditions: read-out: Rac-1: % inh.
T1 construct: made in house
Outline: as §1

Row | KRas G12D mutant + SOS: % inh. (KRas G12D mutant) | KRas G12D mutant: % inh. (KRas G12D mutant) | KRas wild type + SOS: % inh. (KRas wild type) | KRas wild type: % inh. (KRas wild type) | inhibition at 20 µM (Rac-1) [%] | SMILES | % inh of Smad2/3 phosphorylation in Panc-1 [1] | inhibition at 10 µM (TNF-alpha) [%]
1 | C (C = 50-75% inhibition) | C (C = 50-75% inhibition) | D (D = 76-100% inhibition) | C (C = 50-75% inhibition) | 50 to 75 | Cc1c(-c2ccn(C)n2)cn2nc(-c3nccn3C)nc(N)c12 [Compound 211, 5-Methyl-2-(1-methyl-1H-imidazol-2-yl)-6-(1-methyl-1H-pyrazol-3-yl)pyrrolo[2,1-f][1,2,4]triazin-4-amine] | D (D = 76-100% inhibition) | 0
2 | D (D = 76-100% inhibition) | C (C = 50-75% inhibition) | D (D = 76-100% inhibition) | C (C = 50-75% inhibition) | 50 to 75 | Cn1ccnc1-c1nc(NS(C)(=O)=O)c2c(-c3ccccc3)c(-c3ccccc3)cn2n1 [Compound 212, N-(2-(1-Methyl-1H-imidazol-2-yl)-5,6-diphenylpyrrolo[2,1-f][1,2,4]triazin-4-yl) methanesulfonamide] | C (C = 46-75% inhibition) | 0
3 | D (D = 76-100% inhibition) | D (D = 76-100% inhibition) | D (D = 76-100% inhibition) | D (D = 76-100% inhibition) | 50 to 75 | COCCCS(=O)(=O)Nc1nc(-c2nccn2C)nn2cc(-c3ccccc3)c(-c3ccccc3)c12 [Compound 213, 3-Methoxy-N-(2-(1-methyl-1H-imidazol-2-yl)-5,6-diphenylpyrrolo[2,1-f][1,2,4]triazin-4-yl)propane-1-sulfonamide] | B (B = 26-45% inhibition) | 0
4 | C (C = 50-75% inhibition) | C (C = 50-75% inhibition) | C (C = 50-75% inhibition) | C (C = 50-75% inhibition) | 50 to 75 | CO[C@H]1C[C@H](S(=O)(=O)Nc2nc(-c3nccn3C)nn3cc(-c4ccccc4)c(-c4ccccc4)c23)C1 [Compound 214, (1r,3r)-3-Methoxy-N-(2-(1-methyl-1H-imidazol-2-yl)-5,6-diphenylpyrrolo[2,1-f][1,2,4]triazin-4-yl)cyclobutane-1-sulfonamide] | D (D = 76-100% inhibition) | 0
5 | D (D = 76-100% inhibition) | D (D = 76-100% inhibition) | D (D = 76-100% inhibition) | D (D = 76-100% inhibition) | 76 to 100 | COc1ccnc(Nc2nc(-c3nccn3C)nn3cc(-c4ccn(CCNC(=O)CCCC[C@H]5SC[C@H]6NC(=O)N[C@H]65)n4)c(C)c23)c1 [Compound 215, N-(2-(3-(4-((4-methoxypyridin-2-yl)amino)-5-methyl-2-(1-methyl-1H-imidazol-2-yl)pyrrolo[2,1-f][1,2,4]triazin-6-yl)-1H-pyrazol-1-yl)ethyl)-5-((3aR,4R,6aS)-2-oxohexahydro-1H-thieno[3,4-d]imidazol-4-yl)pentanamide] | C (C = 46-75% inhibition) | 25 to 49
6 | D (D = 76-100% inhibition) | D (D = 76-100% inhibition) | D (D = 76-100% inhibition) | D (D = 76-100% inhibition) | 76 to 100 | COc1ccnc(Nc2nc(-c3nccn3CCNC(=O)CCCC[C@H]3SC[C@H]4NC(=O)N[C@H]43)nn3cc(-c4ccn(C)n4)c(C)c23)c1 [Compound 216, N-(2-(2-(4-((4-methoxypyridin-2-yl)amino)-5-methyl-6-(1-methyl-1H-pyrazol-3-yl)pyrrolo[2,1-f][1,2,4]triazin-2-yl)-1H-imidazol-1-yl)ethyl)-5-((3aR,4R,6aS)-2-oxohexahydro-1H-thieno[3,4-d]imidazol-4-yl)pentanamide] | C* (C* = 46-75% activation) | 25 to 49
7 | B (B = 26-49% inhibition) | C (C = 50-75% inhibition) | B (B = 26-49% inhibition) | C (C = 50-75% inhibition) | 50 to 75 | COc1ccnc(Nc2nc(-c3nccn3C)nn3cc(-c4c(F)cccc4OC)c(-c4ccccc4)c23)c1 [Compound 217, 6-(2-Fluoro-6-methoxyphenyl)-N-(4-methoxypyridin-2-yl)-2-(1-methyl-1H-imidazol-2-yl)-5-phenylpyrrolo[2,1-f][1,2,4]triazin-4-amine] | C (C = 46-75% inhibition) | 25 to 49
8 | A (A = 1-25% inhibition) | A (A = 1-25% inhibition) | A (A = 1-25% inhibition) | A (A = 1-25% inhibition) | 1 to 25 | CO[C@H]1C[C@H](Nc2nc(-c3nccn3C)nn3cc(-c4cnccc4C)c(-c4ccccc4)c23)C1 [Compound 218, N-((1r,3r)-3-Methoxycyclobutyl)-2-(1-methyl-1H-imidazol-2-yl)-6-(4-methylpyridin-3-yl)-5-phenylpyrrolo[2,1-f][1,2,4]triazin-4-amine] | B* (B* = 26-45% activation) | 1 to 24
9 | 0 (0 = 0% inhibition) | A (A = 1-25% inhibition) | 0 (0 = 0% inhibition) | A (A = 1-25% inhibition) | 1 to 25 | COc1cccc(-c2cn3nc(-c4nccn4C)nc(N[C@H]4C[C@H](OC)C4)c3c2-c2ccccc2)c1OC [Compound 219, 6-(2,3-Dimethoxyphenyl)-N-((1r,3r)-3-methoxycyclobutyl)-2-(1-methyl-1H-imidazol-2-yl)-5-phenylpyrrolo[2,1-f][1,2,4]triazin-4-amine] | D (D = 76-100% inhibition) | 75 to 100
10 | A (A = 1-25% inhibition) | B (B = 26-49% inhibition) | A (A = 1-25% inhibition) | B (B = 26-49% inhibition) | 26 to 49 | COc1ccnc(Oc2nc(-c3nccn3C)nn3cc(-c4ccn(C)n4)c(C)c23)c1 [Compound 220, 4-((4-Methoxypyridin-2-yl)oxy)-5-methyl-2-(1-methyl-1H-imidazol-2-yl)-6-(1-methyl-1H-pyrazol-3-yl)pyrrolo[2,1-f][1,2,4]triazine] | C (C = 46-75% inhibition) | 1 to 24
11 | D (D = 76-100% inhibition) | D (D = 76-100% inhibition) | D (D = 76-100% inhibition) | D (D = 76-100% inhibition) | 76 to 100 | Cc1c(-c2ccn(C)n2)cn2nc(-c3nccn3C)nc(Nc3cc4c(cn3)CCO4)c12 [Compound 221, N-(5-Methyl-2-(1-methyl-1H-imidazol-2-yl)-6-(1-methyl-1H-pyrazol-3-yl)pyrrolo[2,1-f][1,2,4]triazin-4-yl)-2,3-dihydrofuro[3,2-c]pyridin-6-amine] | A (A = 1-25% inhibition) | 0
12 | D (D = 76-100% inhibition) | D (D = 76-100% inhibition) | D (D = 76-100% inhibition) | D (D = 76-100% inhibition) | 76 to 100 | Cc1c(-c2ccn(C)n2)cn2nc(-c3nccn3C)nc(Nc3cc(N4CCOCC4)ccn3)c12 [Compound 222, 5-Methyl-2-(1-methyl-1H-imidazol-2-yl)-6-(1-methyl-1H-pyrazol-3-yl)-N-(4-morpholinopyridin-2-yl)pyrrolo[2,1-f][1,2,4]triazin-4-amine] | A* (A* = 1-25% activation) | 0
13 | A (A = 1-25% inhibition) | B (B = 26-49% inhibition) | 0 (0 = 0% inhibition) | B (B = 26-49% inhibition) | 26 to 49 | COc1ccnc(N(C)c2nc(-c3nccn3C)nn3cc(-c4ccn(C)n4)c(C)c23)c1 [Compound 223, N-(4-Methoxypyridin-2-yl)-N,5-dimethyl-2-(1-methyl-1H-imidazol-2-yl)-6-(1-methyl-1H-pyrazol-3-yl)pyrrolo[2,1-f][1,2,4]triazin-4-amine] | B (B = 26-45% inhibition) | 1 to 24
